Reference: patent US7056908B2, “Pharmaceutical compositions and methods for preventing skin tumor formation and causing regression of existing tumors” (priority 1991, dated 2006)

How the values were obtained:
Format in all cases: cell-based, mouse
SP-1 cells [1] = test: Epidermal transglutaminase activity in neoplastic keratinocytes; conditions: 24 hours
308 cells = test: Cornified envelope formation in 308 cells; conditions: 1.4 mM Ca2+ medium, 3 days
Description: Cornified Envelope Quantitation. Keratinocytes were analyzed for cornified envelope formation as described (Nagae, S. et al, “Effect of retinoic acid on cornified envelope formation: difference between spontaneous envelope formation in vivo or in vitro and expression of envelope competence,” J. Invest., Dermatol., 89: 51–58, 1987), with minor modifications. Floating cells were harvested by collecting culture medium from each 60 mm dish and combining with two washes using phosphate-buffered saline without Ca^2+ and Ms^+2 (PBS). Cells were pelleted for 5 minutes at 1000 rpm in a benchtop clinical centrifuge and resuspended in 100 μl of lysis buffer (2% sodium dodecyl sulfate (SDS) and 20 mM dithiothreitol in PBS). Attached cells were harvested in 250 μl lysis buffer, combined with the preparation of floating cells, and incubated at 95° for 10 minutes. The non-solubilized, intact cornified envelopes, characteristic of terminally differentiated keratinocytes, were counted using a hemocytometer (Nagae, S. et al, “Effect of retinoic acid on cornified envelope formation: difference between spontaneous envelope formation in vivo or in vitro and expression of envelope competence,” J. Invest. Dermatol., 89: 51–58, 1987).
Cornified envelope formation was also determined in cultures of staurosporine-treated neoplastic cells. […]

SP-1 cells [2] = test: Morphological differentiation of SP-1 neoplastic keratinocyte cell line; conditions: for morphological changes: 24 hours, 10 nM staurosporine or 160 nM TPA
c-fos mRNA = c-fos mRNA Northern blot in primary keratinocytes; conditions: for time of maximum c-fos mRNA expression: 8 hour treatment, medium with 0.5% serum
Description: RNA Isolation and Northern Blot Analysis. RNA was isolated by ultracentrifugation of guanidine isothiocyanate lysates through a 5.7M cesium chloride gradient (Chirgwin, J. M. et al, “Isolation of biologically active ribonucleic acid from sources enriched in ribonuclease,” Biochemistry, 18: 5294–5299, 1979). 20 μg of total RNA was loaded per lane and electrophoresed through a 1% agarose gel containing 0.66 M formaldehyde (Davis, L. G. et al, “Basic Methods in Molecular Biology,” New York: Elsevier, 1986). RNA was blotted to reinforced nitrocellulose membrane (BA-S NC; Schleicher & Schuell, Keene, N.H.) and baked at 80° C. in a vacuum oven for 2 hours. Filter were pre-hybridized at 42° overnight in buffer containing 50% formamide as previously described (Yuspa, S. H. et al, “Expression of murine epidermal differentiation markers is tightly regulated by restricted extracellular calcium concentrations in vitro,” J. Cell Biol., 109: 1207–1217, 1989); approximately 20×10^6 dpm of probe was added and hybridization carried out overnight. The final wash performed at 65° using 0.2×SSC with 0.1% SDS. Filters were exposed to Kodak X-Omat AR film at −70° with intensifying screens. Mouse c-fos transcript was detected using a 1.2 kb Bg1 II to Sal I fragment from the Finkel-Biskis-Jinkins murine sarcoma virus sequence (Curran, T. et al, “Structure of the FBJ murine osteosarcoma virus genome: molecular cloning of the associated helper virus and the cellular homologue of the v-fos gene from mouse and human cells,” Mol. Cell. Biol., 3: 914–921, 1983). Following autoradiography, remaining probe was removed by washing in 1% glycerol in deionized water at 80° for 2 minutes (Davis, L. G. et al, “Basic Methods in Molecular Biology,” New York: Elsevier, 1986) and the filter was re-hybridized to a full-length rat glyceraldehyde phosphate dehydrogenase (GAPDH) cDNA in a pUC18 vector (Fort, P. et al, “Various rat adult tissues express only one major mRNA species from the glyceraldehydes-3-phosphate-dehydrogenase multigenic family,” Nucleic. Acids. Res., 13: 1431–1442, 1985). […]

40 kD protein (pp40) = test: 32P phosphoprotein analysis in digitonin-permeabilized keratinocytes; conditions: for phosphorylation of band at about 40 kD (pp40): 160 nM TPA or 10 nM staurosporine
Description: Cell Permeabilization and ^32P-Labelled Phosphoprotein Analysis. Primary mouse keratinocytes were permeabilized with digitonin to facilitate uptake of ^32P-ATP essentially as described (Erusalimsky, J. D. et al, “Diacylglycerols, and phorbol esters rapidly stimulate the phosphorylation of an Mr=80,000 protein kinase C substrate in permeabilized 3T3 cells,” J. Biol. Chem., 263: 19188–19194, 1988). To first assess the efficacy of permeabilization at different digitonin concentrations, 5–10 μg/ml of the DNA-binding fluorochrome propidium iodide (Jones, K. H. et al, “An improved method to determine cell viability by simultaneous staining with fluorescein diacetate-propidium iodide,” J. Histochem. Cytochem., 33: 77–79, 1985) was added to permeabilization buffer instead of labelled ATP. After incubation at 37° for 1–3 minutes, the buffer was removed and cells washed 3–4 times with PBS prior to fluorescence microscopy. […] Following ^32P-labelling, cells were immediately harvested and lysates subject to SDS/8.5% polyacrylamide gel electrophoresis. Approximate molecular weights were determined using pre-stained protein markers (Amersham, Arlington Heights, Ill.). Dried gels were exposed to Kodak X-Omat AR film at −70° prior to development.
Cells were harvested immediately and proteins separated by SDS/PAGE. Dried gels were exposed to Kodak X-Omat AR film at −70° for 12–24 hours prior to development.

CCCCCCCCCCCCCC(=O)O[C@@H]1[C@@H](C)[C@@]2(O)[C@@H](C=C(CO)C[C@]3(O)C(=O)C(C)=C[C@@H]23)[C@H]2C(C)(C)[C@]12OC(C)=O [TPA, 12-0-tetradecanoylphorbol-13-acetate, reference compound]
effect on epidermal transglutaminase activity (SP-1 cells [1]; any dose ranging from 10 pM to 10 μM): no detectable effect
cornified envelope formation (308 cells; 160 nM TPA): not induced
morphological changes (SP-1 cells [2]): does not appreciably alter the appearance
inducing morphological differentiation (SP-1 cells [2]; doses ranging from 1.6 nM to 16 uM): ineffective
time of maximum c-fos mRNA expression (c-fos mRNA): 6 h
phosphorylation of band at about 40 kD (pp40) (40 kD protein (pp40); 3 minutes): enhanced phosphorylation

CN[C@@H]1C[C@H]2O[C@@](C)([C@@H]1OC)n1c3ccccc3c3c4c(c5c6ccccc6n2c5c31)C(=O)NC4 [staurosporine]
maximum induction of epidermal transglutaminase activity (SP-1 cells [1]; 100 nM, 5 day old SP-1 cells): 50 fold
induction of cornified envelopes (308 cells; 10 nM staurosporine): 60 fold
morphological changes (SP-1 cells [2]): morphological changes similar to those seen in primary cells
treatment time required for a maximal response (SP-1 cells [2]; morphological response to staurosporine): at least 48 hours
time of maximum c-fos mRNA expression (c-fos mRNA): 8 h
c-fos mRNA expression on combined exposure with TPA (c-fos mRNA; staurosporine added just before TPA): higher expression of c-fos MRNA than TPA alone
overall protein phosphorylation (40 kD protein (pp40); 10 nM staurosporine, 3 minutes): reduction in overall protein phosphorylation
effect of co-exposure on TPA-mediated phosphorylation of pp40 (40 kD protein (pp40); 160 nM TPA and 10 nM staurosporine): blocked the TPA-mediated phosphorylation
phosphorylation of band at about 40 kD (pp40) (40 kD protein (pp40); 3 minutes): not detected
inducing phosphorylation of pp40 (40 kD protein (pp40); additional doses ranging from 0.1 to 5 nM): ineffective
